Assay results published in patent US20020107197A1, “Ligands for G protein coupled receptors and methods of using them” (priority 2000, published 2002).

Legend:
GPR4 [1] = biological target: T1, GPR4 (Homo sapiens, UniProt P46093); test: ERK MAP kinase activation (phospho-ERK Western blot) in GPR4-infected Swiss 3T3 cells; type: cell-based; conditions: for concentration at which ERK activation was evident / time point at which ERK activation was evident: GPR4-infected Swiss 3T3 cells; for GPR4-dependent ERK activation (in words): GPR4-ires-GFP vs GFP Swiss 3T3 cells, SPC and LPC 100 nM
T1 construct: were used to generate full length GPR4, which was digested with EcoRI and Xba I and cloned into the pBs3HA vector; expressed in transfected cells
How it was run: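 Swiss 3T3 cells transduced with MSCV GPR4-ires-GFP or empty vector, FACS-sorted for GFP, serum-starved overnight, then stimulated with lipids in DMEM. Phospho-ERK1/2 detected by Western blot with ECL, normalised to total ERK; some cells pretreated with 100 ng/ml PTX for 12–16 h before SPC or LPC.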

TDAG8 [2] = biological target: T2, TDAG8 (Homo sapiens, UniProt Q8IYL9); test: Binding of phospholipids to TDAG8
T2 construct: expressed in transfected cells
Method: To characterize the binding of SPC and LPC to GPR4 and TDAG8, we conducted radioligand binding assays. CHO cells were chosen for GPR4 binding assays, since HEK293 cells express relatively high levels of endogenous GPR4. CHO cells stably transfected with empty vector or GPR4 were serum starved for 20 h, then collected after exposure to 2 mM EDTA in PBS. The pelleted cells were stored at −80° C. until use. Binding assays were performed essentially as described previously (Xu et al. (2000) Nat Cell Biol 2, 261-267), except binding was performed at 4° C. Briefly, frozen cells (10^6 cells/ml) were homogenized in a binding buffer. Assays were performed in 96-well plates in triplicate with 100 μl cell homogenate (equivalent to 10^5 cells/well). Different amounts of [^3H]SPC or [^3H]16:0-LPC were added to the cell homogenates in 50 μl of binding buffer, in the presence or absence of cold SPC or 16:0-LPC, or other competitors. The plates were incubated at 4° C. for 120 min, unless otherwise indicated. Cell-bound [^3H]SPC or [^3H]LPC was collected onto a filter (Printed Filtermat A, Wallac, Gaithersburg, Md.) using an automated cell harvester (HARVESTER 96, Tomtec, Orange, Conn.). Specific binding was calculated by subtraction of nonspecific binding (binding detected in the presence of 100-fold excess unlabeled SPC or 16:0-LPC) from the total binding.
Using functional and binding assays, we have identified the ligands for TDAG8.

TDAG8 [3] = biological target: T2, TDAG8; test: SRE luciferase reporter in TDAG8-transfected HEK293 cells; type: cell-based; conditions: lipid 1 μM, TDAG8-transfected HEK293 cells
GPR4 [4] = biological target: T1, GPR4; test: Transwell cell migration of GPR4-transfected HEK293 cells; type: cell-based; conditions: 0.2 μM
Method: (§1) To determine whether GPR4 and/or TDGA8 can mediate the LPC-induced cell migration, we transfected HEK293 cells with GPR4 or TDAG8. Cell migration was performed in Transwell apparatus. GPR4-transfected HEK293 cells, and TDAG8-transfected HEK293 cells migrated to the low-phase of the membrane and the lower chamber of the Transwell in response to SPC and LPC, used at 0.2 μM.

TDAG8 [5] = biological target: T2, TDAG8; test: Transwell cell migration of TDAG8-transfected HEK293 cells; type: cell-based; conditions: TDAG8 overexpressed in HEK293 cells
Method: as §1

Swiss 3T3 cells = test: DNA synthesis ([3H]thymidine incorporation) in parental and GFP-infected Swiss 3T3 cells; type: cell-based
Method: The effect of SPC and LPC on DNA synthesis was measured using [^3H] thymidine incorporation. Briefly, GPR4-ires-GFP- and GFP-Swiss 3T3 cells were plated in 96-well plates, serum-starved for 24 h, and treated with SPC, LPC, or other lipids in serum-free DMEM for 24 h. Cells were incubated with 0.75 μCi/ml [^3H]thymidine in serum-free DMEM for the last 18 h. Cells were harvested onto filter papers presoaked in 1% polyethylenimine using the automated cell harvester HARVEST 96. Incorporated [^3H]thymidine was counted in a 1450 Microbeta Trilux Liquid Scintillation and Luminescence Counter (Perkin-Elmer-Wallac, Inc.).

GPR4 [6] = biological target: T1, GPR4; test: SRE luciferase reporter in GPR4-transfected HEK293 cells; type: cell-based; conditions: GPR4-transfected HEK293 cells; for EC50: read-out: EC50 for the activation of SRE; for activation of SRE reporter: lipid 1 μM
How it was run: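 HEK293 cells, vector-, GPR4- or TDAG8-transfected, co-transfected with pSRE-Luc, serum-starved 16 h, then given SPC or other lipids in serum-free RPMI 1640 for 10 h before luciferase readout from lysates. Where used, PTX (100 ng/ml) added during starvation; C3-exoenzyme plasmid co-transfected. Quadruplicates, Student's t test, p<0.05.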

T2 sequence (Q8IYL9 whole entry): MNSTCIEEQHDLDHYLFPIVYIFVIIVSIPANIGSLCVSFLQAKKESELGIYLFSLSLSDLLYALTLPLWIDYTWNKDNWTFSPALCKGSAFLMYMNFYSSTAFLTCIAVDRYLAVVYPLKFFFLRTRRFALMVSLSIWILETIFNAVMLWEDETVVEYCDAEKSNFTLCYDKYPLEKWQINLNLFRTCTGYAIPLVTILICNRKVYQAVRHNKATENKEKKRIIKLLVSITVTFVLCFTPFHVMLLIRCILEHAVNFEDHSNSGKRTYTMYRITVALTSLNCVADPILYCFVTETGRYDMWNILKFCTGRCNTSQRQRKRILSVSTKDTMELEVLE
T1 sequence (P46093 whole entry): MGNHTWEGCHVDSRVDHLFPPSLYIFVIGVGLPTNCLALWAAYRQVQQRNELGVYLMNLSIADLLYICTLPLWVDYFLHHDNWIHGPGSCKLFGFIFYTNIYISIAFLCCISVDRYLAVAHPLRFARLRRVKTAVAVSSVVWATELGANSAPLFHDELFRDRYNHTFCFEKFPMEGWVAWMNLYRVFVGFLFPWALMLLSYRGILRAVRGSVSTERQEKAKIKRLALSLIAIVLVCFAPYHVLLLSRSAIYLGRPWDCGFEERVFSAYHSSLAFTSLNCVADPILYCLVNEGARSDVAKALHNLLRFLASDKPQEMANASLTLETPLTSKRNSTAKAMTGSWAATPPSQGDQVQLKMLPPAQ

Row | Molecule | concentration at which ERK activation was evident (GPR4 [1]) | time point at which ERK activation was evident (GPR4 [1]) [min] | GPR4-dependent ERK activation (in words) (GPR4 [1]) | binding to TDAG8 (TDAG8 [2]) | activation of SRE reporter (TDAG8 [3]) [fold] | cell migration in Transwell (in words) (GPR4 [4]) | increase of cell migration compared with control cells (TDAG8 [5]) | increase of DNA synthesis (Swiss 3T3 cells; 3 μM, parental and GFP-infected cells) | EC50 (GPR4 [6]) [nM] | activation of SRE reporter (GPR4 [6]) [fold] | DNA synthesis response (in words) (Swiss 3T3 cells; GFP-expressing cells)
1 | CCCCCCCCCCCCC/C=C/[C@@H](O)[C@@H](N)COP(=O)([O-])OCC[N+](C)(C)C [SPC, Sphingosylphosphorylcholine] | approximately 10 nM | 1 | enhanced ERK activation | able to bind to TDAG8 | 4 | increased cell migration | four to five-fold | approximately 6.3 fold | 63 | 4 | –
2 | CCCCCCCCCCCCCCCC(=O)OC[C@@H](O)COP(=O)([O-])OCC[N+](C)(C)C [16:0-LPC] | – | – | – | – | 3.1 | – | – | – | 160 | 3.1 | did not respond significantly
3 | lysophosphatidylcholine [LPC] | ~100 nM | 5 | enhanced ERK activation | able to bind to TDAG8 | – | increased cell migration | four to five-fold | – | – | – | –
